Some test systems named below: MALME-3M melanoma; SNB-19 CNS; MDA-MB-435; HCT-116 colon; MOLT-4 leukemia; BT-549 breast; T-47D breast; A549 NSCLC; COLO 205 colon; HT29 colon; 786-0 renal; HOP-62 NSCLC; NCI/ADR-RES ovarian.
What all share (assay): NCI-60 cell line screen, 48 h

SMILES strings stand for the structures.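 48-hour exposure; five concentrations; linearly interpolated endpoints. The concentration for 50% growth inhibition is given as GI50. At the TGI there is no net growth.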

As for `O=C1SC(SCc2ccccc2)=NC12CC2c1ccccc1` (stereo not given), the TGI in the assay with MALME-3M melanoma amounted to 34.8 µM; in the assay on SNB-19 CNS it was 71.1 µM; with MDA-MB-435, 59.3 µM; in the assay on HCT-116 colon it was 31.4 µM; in the assay with MOLT-4 leukemia, 10.3 µM; with BT-549 breast, 52.8 µM. Further, the TGI in the assay with T-47D breast is greater than 100 µM; in the assay with A549 NSCLC, 81.8 µM; in the assay with COLO 205 colon, 61.3 µM; in the assay with HT29 colon, 54 µM; in the assay with 786-0 renal it was 39.2 µM; in the assay on HOP-62 NSCLC it was greater than 82.8 µM. In the assay with NCI/ADR-RES ovarian, the TGI worked out at 63 µM.

Consider `CCOC(=O)CCC(NC(=O)C(N)Cc1ccc(N(CCCl)CCCl)cc1)C(=O)OCC` (stereo not given), for which the TGI with MALME-3M melanoma turned out to be 0.747 µM; in the assay with SNB-19 CNS it was 15.5 µM; in the assay with MDA-MB-435 it was 3.75 µM; in the assay with HCT-116 colon it was 3.54 µM; with MOLT-4 leukemia it was 1.99 µM; in the assay on BT-549 breast, 12.4 µM. The TGI in the assay with T-47D breast was 3.84 µM; with A549 NSCLC, greater than 33.4 µM; in the assay with COLO 205 colon, 1.85 µM; with HT29 colon, 3.47 µM; with 786-0 renal it was 2.08 µM; in the assay with HOP-62 NSCLC, 7.9 µM. Further, the TGI with NCI/ADR-RES ovarian amounted to 19 µM. For the same compound, in the assay on NCI/ADR-RES ovarian, the GI50 is 3.52 µM.

As for `N=c1oc2ccccc2cc1C(=O)NC12CC3CC(CC(C3)C1)C2`, the TGI with MALME-3M melanoma was 98.2 µM; in the assay with SNB-19 CNS, 80.5 µM; with MDA-MB-435, greater than 83.6 µM; in the assay with HCT-116 colon it was 71.1 µM; in the assay with MOLT-4 leukemia, 10.2 µM; with BT-549 breast, 50.6 µM. The TGI in the assay on T-47D breast is 22.7 µM; in the assay on A549 NSCLC, 73.1 µM; in the assay with COLO 205 colon, 32.7 µM; in the assay on HT29 colon it was greater than 100 µM; in the assay on 786-0 renal it was 9.92 µM; with HOP-62 NSCLC, greater than 83.7 µM. In the assay with NCI/ADR-RES ovarian, this compound had a TGI greater than 100 µM.

Regarding `O=C1c2sc(-c3ccc(Cl)cc3)cc2-n2cccc21`, the TGI in the assay on MALME-3M melanoma, in the assay with SNB-19 CNS, in the assay with MDA-MB-435, in the assay on HCT-116 colon, in the assay with MOLT-4 leukemia and with BT-549 breast was greater than 100 µM throughout. Moreover, the TGI in the assay on T-47D breast, with A549 NSCLC, in the assay with COLO 205 colon, in the assay on HT29 colon, with 786-0 renal and in the assay with HOP-62 NSCLC was greater than 100 µM in each case. In addition, in the assay with NCI/ADR-RES ovarian, the TGI is greater than 100 µM.

With `O=c1[nH]c(=O)n(C2COC(CO)C2O)cc1F` (stereo not given), the TGI in the assay on MALME-3M melanoma, with SNB-19 CNS, in the assay with MDA-MB-435, in the assay with HCT-116 colon, in the assay with MOLT-4 leukemia and in the assay on BT-549 breast was greater than 100 µM throughout. In addition, the TGI with T-47D breast, with A549 NSCLC, in the assay on COLO 205 colon, in the assay with HT29 colon, in the assay with 786-0 renal and in the assay with HOP-62 NSCLC was greater than 100 µM throughout. Also, the TGI in the assay on NCI/ADR-RES ovarian was greater than 100 µM.

For the compound `CCOC(=O)/C(C#N)=C/c1coc2cc(C)cc(C)c2c1=O`, the TGI with MALME-3M melanoma, in the assay on SNB-19 CNS, in the assay on MDA-MB-435, in the assay with HCT-116 colon, in the assay on MOLT-4 leukemia and in the assay on BT-549 breast was greater than 100 µM throughout. For the same compound, the TGI with T-47D breast, in the assay with A549 NSCLC, in the assay with COLO 205 colon, with HT29 colon, in the assay with 786-0 renal and with HOP-62 NSCLC was greater than 100 µM throughout. The compound also gave a TGI in the assay with NCI/ADR-RES ovarian greater than 100 µM.

In the case of `COc1ccc(NC(=S)c2ccc(CN3CCCCC3)s2)cc1`, the TGI with MALME-3M melanoma came out at 37.6 µM; with SNB-19 CNS, 43.9 µM; in the assay on MDA-MB-435 it was 34.7 µM; in the assay on HCT-116 colon, 35.6 µM; in the assay on MOLT-4 leukemia, 61.9 µM; with BT-549 breast it was 44 µM. The TGI was found to be 60.7 µM with T-47D breast; 47.4 µM with A549 NSCLC; 30.8 µM in the assay on COLO 205 colon; 18.3 µM with HT29 colon; 36.7 µM with 786-0 renal; 52.7 µM in the assay with HOP-62 NSCLC. The compound further gave a TGI in the assay with NCI/ADR-RES ovarian of 93.8 µM.

For the compound `Cc1cc(OC(=O)Nc2cccc3ccccc23)c(C(C)C)cc1C(=S)Nc1ccccc1`, the TGI with MALME-3M melanoma was determined as 36.8 µM; in the assay with SNB-19 CNS, 71.3 µM; in the assay with MDA-MB-435, 33.5 µM; with HCT-116 colon it was 32.4 µM; in the assay with MOLT-4 leukemia, 52.4 µM; with BT-549 breast it was 32.1 µM. For the same compound, the TGI is 53.6 µM with T-47D breast; greater than 100 µM in the assay with A549 NSCLC; 39.4 µM in the assay with COLO 205 colon; 35.8 µM with HT29 colon; 56.6 µM in the assay with 786-0 renal; 34.9 µM in the assay on HOP-62 NSCLC. The TGI in the assay with NCI/ADR-RES ovarian amounted to 52.1 µM.

In the case of `O=C1c2ccccc2-n2nnnc2C2CSCN12` (stereo not given), the TGI in the assay on MALME-3M melanoma, in the assay with SNB-19 CNS, in the assay on MDA-MB-435, in the assay with HCT-116 colon, in the assay with MOLT-4 leukemia and with BT-549 breast was greater than 100 µM in each case. Also, the TGI in the assay with T-47D breast, in the assay on A549 NSCLC, with COLO 205 colon, in the assay with HT29 colon, in the assay with 786-0 renal and in the assay with HOP-62 NSCLC was greater than 100 µM throughout. In addition, the TGI with NCI/ADR-RES ovarian is greater than 100 µM.

Consider `CCOC(=O)c1nnn(CCCCO)c1C(=O)OCC`, for which the TGI in the assay with MALME-3M melanoma is greater than 100 µM; in the assay on SNB-19 CNS, 84.5 µM; in the assay on MDA-MB-435 it was greater than 100 µM; in the assay on HCT-116 colon, greater than 100 µM; in the assay with MOLT-4 leukemia, greater than 100 µM; with BT-549 breast it was greater than 100 µM. Further, the TGI in the assay with T-47D breast, with A549 NSCLC, with COLO 205 colon, in the assay with HT29 colon, in the assay with 786-0 renal and in the assay on HOP-62 NSCLC was greater than 100 µM in each case. Besides, the TGI in the assay with NCI/ADR-RES ovarian was greater than 100 µM.

In the case of `O=C(O)C1C2c3ccccc3C(c3ccccc32)C1C(=O)NCC1CC1` (stereo not given), the TGI with MALME-3M melanoma, in the assay on SNB-19 CNS, in the assay on MDA-MB-435, with HCT-116 colon, with MOLT-4 leukemia and in the assay with BT-549 breast was greater than 100 µM in each case. Also, the TGI with T-47D breast, in the assay on A549 NSCLC, in the assay on COLO 205 colon, with HT29 colon, in the assay with 786-0 renal and with HOP-62 NSCLC was greater than 100 µM each time. In the assay on NCI/ADR-RES ovarian, this compound gave a TGI greater than 100 µM.

In the case of `N#C/C(N)=C(\C#N)NC=NCCO`, the TGI in the assay with MALME-3M melanoma, in the assay on SNB-19 CNS, with MDA-MB-435, in the assay on HCT-116 colon, in the assay with MOLT-4 leukemia and in the assay on BT-549 breast was greater than 100 µM in each case. The TGI in the assay with T-47D breast, in the assay on A549 NSCLC, in the assay with COLO 205 colon, with HT29 colon, in the assay on 786-0 renal and with HOP-62 NSCLC was greater than 100 µM each time. In addition, the TGI with NCI/ADR-RES ovarian was greater than 100 µM.

For `C[C@]12[C@@H]3CC[C@H]1[C@@H](O)C(=O)N2CC3`, the TGI with MALME-3M melanoma, in the assay with SNB-19 CNS, in the assay on MDA-MB-435, in the assay with HCT-116 colon, in the assay on MOLT-4 leukemia and with BT-549 breast was greater than 100 µM each time. The TGI with T-47D breast, in the assay with A549 NSCLC, in the assay with COLO 205 colon, in the assay with HT29 colon, in the assay on 786-0 renal and in the assay on HOP-62 NSCLC was greater than 100 µM in each case. Further, the TGI with NCI/ADR-RES ovarian is greater than 100 µM.
